ChEMBL document CHEMBL1201862, “PubChem BioAssay data set” (2004)
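Exposure lasted 48 hours, with cells grown in 96-well plates and compounds tested at five concentrations. GI50: concentration for 50% inhibition of growth.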 The source made the active and inactive calls. Rule as the data show it: active = GI50 up to about 1.1 µM and inactive = higher.

Tests used:
Experiment in all cases: NCI-60 cell line screen, 48 h
[1] = system: 786-0
[2] = system: MCF7
[3] = system: DU-145
[4] = system: IGROV-1
[5] = system: SNB-75
[6] = system: COLO 205
[7] = system: PC-3
[8] = system: HOP-92
[9] = system: Malme-3M
[10] = system: KM12
[11] = system: HCT-116
[12] = system: NCI-H522
[13] = system: RXF 393
[14] = system: SK-MEL-2
[15] = system: HT-29
[16] = system: SK-MEL-28
[17] = system: UO-31
[18] = system: SF-539
[19] = system: T47D
[20] = system: SN12C
[21] = system: M14
[22] = system: OVCAR-5
[23] = system: K562
[24] = system: MOLT-4
[25] = system: HCC 2998
[26] = system: HL-60
[27] = system: MDA-N
[28] = system: U-251
[29] = system: SK-OV-3
[30] = system: MDA-MB-231
[31] = system: UACC-257
[32] = system: ACHN
[33] = system: CAKI-1
[34] = system: OVCAR-8
[35] = system: EKVX
[36] = system: SF-295
[37] = system: NCI/ADR-RES
[38] = system: NCI-H23
[39] = system: UACC-62
[40] = system: TK-10
[41] = system: SW-620
[42] = system: MDA-MB-435
[43] = system: LOX IMVI
[44] = system: NCI-H226
[45] = system: HOP-62
[46] = system: CCRF-CEM
[47] = system: RPMI-8226
[48] = system: OVCAR-4
[49] = system: SNB-19
[50] = system: SR
[51] = system: OVCAR-3
[52] = system: Hs-578T
[53] = system: SF-268
[54] = system: HCT-15
[55] = system: A549
[56] = system: SK-MEL-5
[57] = system: A498
[58] = system: NCI-H460

Measured: GI50

Cc1ccc2nc(N/N=C/c3ccc(C)s3)cc(C)c2c1
inactive: [1] 3.37 µM | [2] 6.79 µM | [3] 11 µM | [4] 6.87 µM | [5] > 10 µM | [6] 3.79 µM | [7] 11.8 µM | [8] 4.44 µM | [9] 12.8 µM | [10] 4.76 µM | [11] 3.7 µM | [12] 4.52 µM | [13] 13.3 µM | [14] 19 µM | [15] 3.51 µM | [16] 6.76 µM | [17] 9.82 µM | [18] 11 µM | [19] 7.91 µM | [20] 12.7 µM | [21] 10.2 µM | [22] 10.1 µM | [23] 3.99 µM | [24] 5.75 µM | [25] 4.69 µM | [26] 4.71 µM | [27] 7.8 µM | [28] 9.51 µM | [29] 18.3 µM | [30] 16.1 µM | [31] 5.56 µM | [32] 11.7 µM | [33] 17.1 µM | [34] 12.9 µM | [35] 5.7 µM | [36] 7.94 µM | [37] 12.3 µM | [38] 7.98 µM | [39] 10.6 µM | [40] 8.97 µM | [41] 6.1 µM | [42] 7.31 µM | [43] 4.53 µM | [44] 10.1 µM | [45] 15.7 µM | [46] 5.11 µM | [47] 3.61 µM | [48] 10.3 µM | [49] 12.9 µM | [50] 19.7 µM | [51] 6.24 µM | [52] 15.2 µM | [53] 11.6 µM | [55] 6.79 µM | [56] 4.56 µM
4.52 µM: [54]

CCC1(C)N=c2c(ncn2N=C(C)C)=C(C(N)=O)N1 (stereo not drawn)
> 100 µM: [54]
active: [8] 0.426 µM
inactive: [1] > 100 µM | [57] > 100 µM | [3] > 100 µM | [4] > 100 µM | [5] > 100 µM | [6] > 100 µM | [7] > 100 µM | [9] > 100 µM | [10] 22.6 µM | [11] > 100 µM | [12] > 100 µM | [13] > 100 µM | [15] > 100 µM | [16] > 100 µM | [18] > 100 µM | [19] > 100 µM | [20] > 100 µM | [21] > 100 µM | [22] > 100 µM | [23] > 100 µM | [25] > 100 µM | [26] > 100 µM | [27] > 100 µM | [28] > 100 µM | [29] > 100 µM | [30] > 100 µM | [31] > 100 µM | [32] > 100 µM | [33] > 100 µM | [58] > 100 µM | [34] > 100 µM | [35] > 100 µM | [36] > 100 µM | [37] > 100 µM | [38] > 100 µM | [39] > 100 µM | [40] > 100 µM | [41] > 100 µM | [42] > 100 µM | [43] > 100 µM | [44] > 100 µM | [45] > 100 µM | [46] > 100 µM | [47] > 100 µM | [48] > 100 µM | [49] > 100 µM | [50] > 100 µM | [51] > 100 µM | [52] > 100 µM | [53] > 100 µM | [55] > 100 µM | [56] > 100 µM

COc1cc(OC)c(CSCC(NC(=O)OCC2c3ccccc3-c3ccccc32)C(=O)O)c(OC)c1 (stereo not drawn)
> 10 µM: [54]
inactive: [57] > 10 µM | [3] > 10 µM | [4] > 10 µM | [5] 6.95 µM | [6] > 10 µM | [7] > 10 µM | [8] > 10 µM | [10] > 10 µM | [11] > 10 µM | [13] > 10 µM | [15] > 10 µM | [16] > 10 µM | [17] 5.68 µM | [18] > 10 µM | [20] > 10 µM | [21] > 10 µM | [22] > 10 µM | [27] > 10 µM | [28] > 10 µM | [30] > 10 µM | [32] > 10 µM | [33] > 10 µM | [34] > 10 µM | [35] > 10 µM | [36] > 10 µM | [37] > 10 µM | [38] > 10 µM | [40] > 10 µM | [41] > 10 µM | [42] > 10 µM | [44] 5.22 µM | [48] > 10 µM | [49] > 10 µM | [51] > 10 µM | [53] > 10 µM | [55] > 10 µM | [56] > 10 µM
